Measured values published in patent US20240368173A1, “TRICYCLIC GPR65 MODULATORS” (PATHIOS THERAPEUTICS LIMITED, priority 2021, published 2024).
Where two headings read alike, the source gives them in different places.

Target: human recombinant GPR65 (Homo sapiens, UniProt Q8IYL9)
Test: Human GPR65 cAMP HTRF antagonist assay
Assay type: cell-based
Text: In one preferred embodiment, the compound prevents the increase in cytoplasmic cAMP levels expected following GPR65 activation at acidic pH. This prevention of cAMP accumulation in turn prevents downstream signalling through ICER, as described above. The “Human GPR65 cyclic adenosine monophosphate (cAMP) Homogeneous Time Resolved Fluorescence (HTRF) antagonist assay”, or simply “cAMP assay”, as described in the accompanying examples, can be used to measure the potency of GPR65 modulators, which is expressed as the concentration of compound required to reduce the increase in cAMP concentration upon GPR65 activation by 50% (i.e. an IC50).
Human GPR65 Cyclic Adenosine Monophosphate (cAMP) Homogeneous Time Resolved Fluorescence (HTRF) Antagonist Assay Procedure
IC50 data was obtained by the following procedure:
1321N1 human astrocytoma cells stably expressing human recombinant GPR65 (1321N1-hrGPR65 cells, EuroscreenFast) were cultured according to the vendor's instructions.
Compounds were tested for their ability to antagonise GPR65, through measuring the concentration of cytoplasmic cAMP following treatment of the cells at a pH of 7.2 to activate GPR65 signalling and addition of the compound to be tested. The extent to which the expected rise in cAMP concentration upon GPR65 activation was suppressed by the added compound is indicative of its potency. The assay was carried out according to EuroscreenFast assay Methodology as follows.
On the day of the assay, test compounds were added to 384-well, low volume, white microtiter plates by acoustic dispensing. KRH buffer (5 mM KCl, 1.25 mM MgSO4, 124 mM NaCl, 25 mM HEPES, 13.3 mM Glucose, 1.25 mM KH2PO4 and 1.45 mM CaCl2) was adjusted to pH 6.5, pH 7.6 and pH 8.4 by adding NaOH. 1321N1-hGPR65 cells were rapidly thawed and diluted in KRH, pH 7.6 prior to centrifugation at 300×g for 5 min and resuspension in assay buffer (KRH, pH 7.6, supplemented with 1 mM 3-isobutyl-1-methylxanthine (IBMX) and 200 μM ethylenediaminetetraacetic acid (EDTA)). Cells were added to assay plates at a density of 2,000 cells per well in a volume of 5 μl. Assay plates were briefly centrifuged at 100×g and then incubated at room temperature for 30 min. Cells were stimulated by the addition of 5 μL KRH, pH 6.5, to achieve an assay pH of 7.2, while control wells received 5 μl KRH, pH 8.4 to achieve an assay pH of 7.9. Assay plates were briefly centrifuged at 100×g and then incubated at room temperature for 30 min.
Accumulation of cAMP was detected by cAMP HTRF kit (Cisbio). d2-labeled cAMP and cryptate-labeled anti-cAMP antibody in Lysis and Detection Buffer (Cisbio) were added to assay plates, and the plates were incubated at room temperature for 1 h. HTRF measurements were performed using a Pherastar FSX instrument. Acceptor and donor emission signals were measured at 665 nm and 620 nm, respectively, and HTRF ratios were calculated as signal665 nm/signal620 nm×10^4. Data were normalised to high and low control values and fitted with 4-parameter logistic regression to determine hGPR65 IC50 values for the test compounds, which are shown in Table 1.

Sequence of human recombinant GPR65 (Q8IYL9 whole entry): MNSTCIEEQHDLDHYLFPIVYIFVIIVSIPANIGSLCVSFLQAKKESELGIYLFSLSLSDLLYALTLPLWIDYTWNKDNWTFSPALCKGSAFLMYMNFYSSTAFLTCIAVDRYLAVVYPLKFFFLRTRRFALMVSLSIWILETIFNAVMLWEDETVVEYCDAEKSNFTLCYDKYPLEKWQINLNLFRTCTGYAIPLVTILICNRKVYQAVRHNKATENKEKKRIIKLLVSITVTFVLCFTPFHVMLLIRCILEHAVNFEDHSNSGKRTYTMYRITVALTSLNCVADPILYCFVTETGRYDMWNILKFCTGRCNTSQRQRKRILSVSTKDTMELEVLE

| SMILES | IC50 [nM] | IC50 (1321N1-hrGPR65 cells, cAMP HTRF, assay pH 7.2, read-out: hGPR65 IC50 (Activity of selected compounds according to the invention)) [nM] |
| --- | --- | --- |
| O=C(Nc1cc(C(F)(F)F)on1)N1[C@H]2CC[C@@H]1c1n[nH]c(=O)cc1C2 [Compound 110, (6S,9R)-3-Oxo-N-(5-(trifluoromethyl)isoxazol-3-yl)-3,5,6,7,8,9-hexahydro-2H-6,9-epiminocyclohepta[c]pyridazine-10-carboxamide] | < 500 |  |
| O=C(Nc1cc(Cl)c(-c2ccc(OC(F)F)nc2)cc1F)N1[C@H]2CC[C@@H]1c1c[nH]c(=O)cc1C2 [Compound 325, (6S,9R)-N-(5-Chloro-4-(6-(difluoromethoxy)pyridin-3-yl)-2-fluorophenyl)-3-oxo-3,5,6,7,8,9-hexahydro-2H-6,9-epiminocyclohepta[c]pyridine-10-carboxamide] | < 500 |  |
| COc1ccc(-c2cc(F)c(NC(=O)N3[C@H]4CC[C@@H]3c3n[nH]c(=O)cc3C4)cc2Cl)nc1 [Compound 211, (6S,9R)-N-(5-Chloro-2-fluoro-4-(5-methoxypyridin-2-yl)phenyl)-3-oxo-3,5,6,7,8,9-hexahydro-2H-6,9-epiminocyclohepta[c]pyridazine-10-carboxamide] | < 500 |  |
| O=C(Nc1cc(Cl)c(Cl)cc1F)N1C2CCC1c1ncnc(F)c1C2 (racemic) [Compound 87, (±)—N-(4,5-Dichloro-2-fluorophenyl)-4-fluoro-6,7,8,9-tetrahydro-5H-6,9-epiminocyclohepta[d]pyrimidine-10-carboxamide] | < 500 |  |
| O=C(Nc1cc(Cl)c(Cl)cc1F)N1[C@H]2CC[C@@H]1c1ccnc(C(F)F)c1C2 [Compound 89, (5R,8S)-N-(4,5-Dichloro-2-fluorophenyl)-1-(difluoromethyl)-6,7,8,9-tetrahydro-5H-5,8-epiminocyclohepta[c]pyridine-10-carboxamide] |  | 500 to 5000 |
| O=C(Nc1cc(Cl)c(-c2ccc3cnoc3c2)cc1F)N1[C@H]2CC[C@@H]1c1n[nH]c(=O)cc1C2 [Compound 196, (6S,9R)-N-(4-(Benzo[d]isoxazol-6-yl)-5-chloro-2-fluorophenyl)-3-oxo-3,5,6,7,8,9-hexahydro-2H-6,9-epiminocyclohepta[c]pyridazine-10-carboxamide] | 500 to 5000 |  |
| O=C(Nc1cc(Cl)c(-c2cccnc2)cc1F)N1[C@H]2CC[C@@H]1c1n[nH]c(=O)cc1C2 [Compound 136, (6S,9R)-N-(5-Chloro-2-fluoro-4-(pyridin-3-yl)phenyl)-3-oxo-3,5,6,7,8,9-hexahydro-2H-6,9-epiminocyclohepta[c]pyridazine-10-carboxamide] | < 500 |  |
| O=C1Cc2ccc(-c3cc(F)c(NC(=O)N4[C@H]5CC[C@@H]4c4n[nH]c(=O)cc4C5)cc3Cl)cc2N1 [Compound 153, (6S,9R)-N-(5-Chloro-2-fluoro-4-(2-oxoindolin-6-yl)phenyl)-3-oxo-3,5,6,7,8,9-hexahydro-2H-6,9-epiminocyclohepta[c]pyridazine-10-carboxamide] | < 500 |  |
| O=C(Nc1cc(Cl)c(OC2CCC2)cc1F)N1C2CCC1c1n[nH]c(=O)cc1C2 (racemic) [Compound 51, (±)-N-(5-Chloro-4-cyclobutoxy-2-fluorophenyl)-3-oxo-3,5,6,7,8,9-hexahydro-2H-6,9-epiminocyclohepta[c]pyridazine-10-carboxamide] | < 500 |  |
| O=C(Nc1cc(Cl)c(-c2ccc3nonc3c2)cc1F)N1C2CCC1C(F)(F)c1c2ccnc1F (racemic) [Compound 289, (±)-N-(4-(Benzo[c][1,2,5]oxadiazol-5-yl)-5-chloro-2-fluorophenyl)-1,9,9-trifluoro-6,7,8,9-tetrahydro-5H-5,8-epiminocyclohepta[c]pyridine-10-carboxamide] | < 500 |  |
| O=C(Nc1cc(Cl)c(-c2ccc(OCC(F)F)nc2)cc1F)N1[C@H]2CC[C@@H]1c1n[nH]c(=O)cc1C2 [Compound 305, (6S,9R)-N-(5-Chloro-4-(6-(2,2-difluoroethoxy)pyridin-3-yl)-2-fluorophenyl)-3-oxo-3,5,6,7,8,9-hexahydro-2H-6,9-epiminocyclohepta[c]pyridazine-10-carboxamide] | < 500 |  |
| O=C(Nc1cc(Cl)c(-c2cccc3nonc23)cc1F)N1[C@H]2CC[C@@H]1c1n[nH]c(=O)cc1C2 [Compound 210, (6S,9R)-N-(4-(Benzo[c][1,2,5]oxadiazol-4-yl)-5-chloro-2-fluorophenyl)-3-oxo-3,5,6,7,8,9-hexahydro-2H-6,9-epiminocyclohepta[c]pyridazine-10-carboxamide] | < 500 |  |
| O=C(Nc1cc(Cl)c(-c2ccc3nonc3c2)cc1F)N1[C@H]2CC[C@@H]1c1n[nH]c(=O)cc1C2 [Compound 108, (6S,9R)-N-(4-(Benzo[c][1,2,5]oxadiazol-5-yl)-5-chloro-2-fluorophenyl)-3-oxo-3,5,6,7,8,9-hexahydro-2H-6,9-epiminocyclohepta[c]pyridazine-10-carboxamide] | < 500 |  |
| O=C(Nc1cc(Cl)c(-c2ccc(OC3CCCC3)nc2)cc1F)N1[C@H]2CC[C@@H]1c1n[nH]c(=O)cc1C2 [Compound 336, (6S,9R)-N-(5-Chloro-4-(6-(cyclopentyloxy)pyridin-3-yl)-2-fluorophenyl)-3-oxo-3,5,6,7,8,9-hexahydro-2H-6,9-epiminocyclohepta[c]pyridazine-10-carboxamide] | < 500 |  |
| O=C(Nc1cc(Cl)c(-c2ccc3nonc3c2)cn1)N1[C@H]2CC[C@@H]1c1n[nH]c(=O)cc1C2 [Compound 238, (6S,9R)-N-(5-(Benzo[c][1,2,5]oxadiazol-5-yl)-4-chloropyridin-2-yl)-3-oxo-3,5,6,7,8,9-hexahydro-2H-6,9-epiminocyclohepta[c]pyridazine-10-carboxamide] | < 500 |  |
| CCOc1ccc(-c2cc(F)c(NC(=O)N3[C@H]4CC[C@@H]3c3c[nH]c(=O)cc3C4)cc2Cl)cn1 [Compound 272, (6S,9R)-N-(5-Chloro-4-(6-ethoxypyridin-3-yl)-2-fluorophenyl)-3-oxo-3,5,6,7,8,9-hexahydro-2H-6,9-epiminocyclohepta[c]pyridine-10-carboxamide] | < 500 |  |
| O=C(Nc1cc(Cl)c(Br)cc1F)N1C2CCC1c1c[nH]c(=O)nc1C2 (racemic) [Compound 16, (±)-N-(4-bromo-5-chloro-2-fluorophenyl)-2-oxo-3,5,6,7,8,9-hexahydro-2H-5,8-epiminocyclohepta[d]pyrimidine-10-carboxamide] | < 500 |  |
| O=C(Nc1cc(Cl)c(-c2cncc(CF)c2)cc1F)N1[C@H]2CC[C@@H]1c1n[nH]c(=O)cc1C2 [Compound 311, (6S,9R)—N-(5-Chloro-2-fluoro-4-(5-(fluoromethyl)pyridin-3-yl)phenyl)-3-oxo-3,5,6,7,8,9-hexahydro-2H-6,9-epiminocyclohepta[c]pyridazine-10-carboxamide] | < 500 |  |
| CCOc1ccc(-c2cc(F)c(NC(=O)N3[C@H]4CC[C@@H]3c3ccnc(F)c3C4)cc2Cl)cn1 [Compound 263, (5R,8S)-N-(5-Chloro-4-(6-ethoxypyridin-3-yl)-2-fluorophenyl)-1-fluoro-6,7,8,9-tetrahydro-5H-5,8-epiminocyclohepta[c]pyridine-10-carboxamide] | < 500 |  |
| N#Cc1cc(NC(=O)N2[C@H]3CC[C@@H]2c2n[nH]c(=O)cc2C3)c(F)cc1Cl [Compound 112, (6S,9R)-N-(4-Chloro-5-cyano-2-fluorophenyl)-3-oxo-3,5,6,7,8,9-hexahydro-2H-6,9-epiminocyclohepta[c]pyridazine-10-carboxamide] | < 500 |  |
| O=C(Nc1cc(Cl)c(-c2ccc(OCC3CC3)nc2)cc1F)N1[C@H]2CC[C@@H]1c1n[nH]c(=O)cc1C2 [Compound 318, (6S,9R)-N-(5-Chloro-4-(6-(cyclopropylmethoxy)pyridin-3-yl)-2-fluorophenyl)-3-oxo-3,5,6,7,8,9-hexahydro-2H-6,9-epiminocyclohepta[c]pyridazine-10-carboxamide] | < 500 |  |
| O=C(Nc1cc(Cl)c(-c2nnc(C(F)(F)F)s2)cc1F)N1[C@H]2CC[C@@H]1c1ccnc(F)c1C2 [Compound 65, (5R,8S)-N-(5-Chloro-2-fluoro-4-(5-(trifluoromethyl)-1,3,4-thiadiazol-2-yl)phenyl)-1-fluoro-6,7,8,9-tetrahydro-5H-5,8-epiminocyclohepta[c]pyridine-10-carboxamide] | < 500 |  |
